Source: US6113896A, “Pharmaceutical compositions containing ecotin and homologs thereof” (priority 1994, dated 2000)
Values joined by “and” are separate entries in the source; they are usually repeats but may differ in a detail not shown here. Equal values may be shown once. “Also recorded” adds a separate entry of the source.

Key:
plasma kallikrein = assay: Specificity assay, plasma kallikrein; type: biochemical, human; settings: for Percent Activity of Kallikrein: 100 nM inhibitor, ~1 h, 10 nM enzyme
Description: (§1) Specificity Assays The following assays were used to test the specificity of ecotin and the M84K and M84R mutants against various proteases. Ecotin, M84K, M84R (100 nM each), or a control blank were incubated at room temperature for ~1 h with each enzyme. The enzymes tested (enzyme concentration, buffer, substrate) were FXa (1.2 nM, Buffer A, 0.7 mM Spectrozyme fXa), thrombin (3.7 nM, Buffer A, 0.7 mM S2366), TF.cndot.FVIIa (12.0 nM, Buffer B, 0.7 mM S2366), FXIa (1.2 nM, Buffer A containing 1 mg/ml BSA, 0.7 mM S2366), activated protein C (4.3 nM, Buffer A, 0.7 mM S2366), plasmin (15 nM, Buffer A, 1 mM S2251), single chain t-PA (15 nM, Buffer A, 2.5 mM S2288), Factor XIIa (10 nM, Buffer A, 0.5 mM S2302, plasma kallikrein (10 nM, Buffer A, 0.5 mM S2302), HLE (17 nM, 0.1 M Tris, pH 7.5, 0.5 M NaCl and 0.005 % Triton X-100, 0.42 mM MeOSuc-AAPV-pNA) (SEQ ID NO:9), bovine trypsin (10 nM, Buffer A, 0.25 mM Spectrozyme fXa), and bovine chymotrypsin (10 nM, Buffer A, 1 mM Suc-AAPF-pNA) (SEQ ID NO:10). Buffer A contains 50 mM Tris, pH 7.5, 100 mM NaCl, 2 mM CaCl2 and 0.005% Triton X-100. Buffer B contains 50 mM Tris, pH 7.5, 100 mM NaCl, 10 mM CaCl2, 0.5% BSA, 60 nM TF1-243,and 1 mM CHAPS. The initial change in absorbance at 405 nm was monitored after addition of substrate. Controls lacking inhibitor and/or enzyme were also assayed to assess the uninhibited rates and the background substrate hydrolysis rates, respectively.

HLE = assay: Specificity assay, HLE; type: biochemical, human; settings: for Percent Activity of HLE: 100 nM inhibitor, ~1 h, 17 nM enzyme
Description: as §1

human FXa = assay: Equilibrium inhibition constant with Factor Xa (tight-binding analysis); type: biochemical; settings: for inhibition of FXa, in words: compared with wild type
Description: Determination of Equilibrium Inhibition Constants Apparent Ki values (Ki *) for the inhibition of the enzymes tested by ecotin and mutants were measured as follows. All reactions were performed at 25° C. Stock solutions of trypsin were quantitated by active site burst titration with MUGB as previously described (Jameson, G. W. et al., Biochem. J. 131:107-117 [1973]) using a Fluoroskan II plate reader at excitation wavelength of 355 nm and emission wavelength of 460 nm. Data was collected on a Macintosh SE20 using either Delta Soft II Fl v3.31 software (BioMetallics). Active site titrated trypsin was then used to quantitate ecotin active sites using BAPA as the substrate; a stoichiometry of 1:1 was assumed (Chung, C. H. et al., supra). Factor Xa, Factor XIIa, plasma kallikrein, or HLE were then quantitated by active site titration using ecotin as a standard, again assuming 1:1 stoichiometry. In addition, the concentration of HLE was quantitated by methods previously described using a calibrated stock of α1 -proteinase inhibitor to titrate the HLE active sites (Beatty, K. et al., J. Biol. Chem. 255:3931-3934 [1980]); the same HLE active site concentration was determined using both ecotin and α1 -proteinase inhibitor. The substate for FXa was Spectrozyme fXa (0.5 mM); the substrate for FXIIa (0.5 mM) and plasma kallikrein was S2302 (0.5 mM); the substrate for HLE was MeOSuc-Ala-Ala-Pro-Val-pNA (0.4 mM). There was good agreement upon comparison of the protein concentrations determined by amino acid analysis, Bradford analysis (Bradford, M. M. Anal. Biochem. 72:248-254 (1976) or active site titrations for trypsin, ecotin, FXa, FXIIa, plasma kallikrein, and HLE.
Therefore, apparent equilibrium dissociation values (Ki *) were determined using methods derived for tight-binding inhibitors (Morrison, J. F. Biochim. Biophys. Acta 185:269-286 [1969]), (Bieth, J. in Proteinase Inhibitors (Fritz, H., Tschesche, H., Greene, L. J. and Truscheit, E., Ed.) pp 463-469, Springer-Verlag, New York [1974]). Data were fit by nonlinear regression analysis to equation 1 and values for Ki * were determined. [formula] where α is the fractional activity (steady-state inhibited rate divided by the uninhibited rate), [Eo ] is the total enzyme concentration, and [Io ] is the total ecotin concentration. Since the inhibitor and substrate compete for the same site, the true Ki value is related to Ki^* by the expression Ki =Ki */(1+[S]/Km), where Km is the Michaelis constant for the substrate, and [S] is the substrate concentration.
a. […] Following a 1 hour incubation at room temperature to reach equilibration of the enzyme.cndot.inhibitor complex, 20 μl of 5 mM Spectrozyme fXa was added, and the steady-state rate of product formation measured by monitoring the change in absorbance at 405 nm. The Km for Spectrozyme fXa with FXa under these conditions was determined to be 0.23 mM by linear regression analysis of Lineweaver-Burke plots.

TF·FVIIa = assay: Specificity assay, TF·FVIIa; type: biochemical, human; settings: for Percent Activity of TF/Factor VIIa: 100 nM inhibitor, ~1 h, 12.0 nM enzyme
Description: as §1

Substance	Percent Activity of Kallikrein (plasma kallikrein) [%]	inhibition of plasma kallikrein, in words (plasma kallikrein; listed as P1 Arg mutant)	inhibition of plasma kallikrein, in words (plasma kallikrein; text statement)	Percent Activity of HLE (HLE) [%]	inhibition of HLE, in words (HLE; listed as P1 Arg mutant)	inhibition of HLE, in words (HLE; text statement)	inhibition of FXa, in words (human FXa)	Percent Activity of TF/Factor VIIa (TF·FVIIa) [%]	inhibition of TF·FVIIa, in words (TF·FVIIa; listed as P1 Arg mutant)	inhibition of TF·FVIIa, in words (TF·FVIIa; text statement)	Ki (human FXa; apparent value, 0.5 mM Spectrozyme fXa, read-out: Ki* (apparent equilibrium dissociation value) with FXa)	inhibition of TF·FVIIa, in words (TF·FVIIa; text statement, listed as ecotin)	inhibition of plasma kallikrein, in words (plasma kallikrein; listed as P1 Lys mutant)	inhibition of HLE, in words (HLE; listed as P1 Lys mutant)	inhibition of TF·FVIIa, in words (TF·FVIIa; listed as P1 Lys mutant)
M84R	1	significantly inhibited	still potently inhibited	88	did not inhibit	effectively diminished inhibition; also recorded: no longer inhibited	slightly more potent as FXa inhibitors; also recorded: slightly more potent than the wild type inhibitor	87	did not inhibit	Neither ecotin, the M84R or M84K mutants inhibited	–	–	–	–	–
Ecotin: E. coli periplasmic protein having the 142 amino acid residue sequence reported by McGrath et al.; recombinant, P1 Met84	0	–	potently inhibited	0	–	potently inhibited	–	99	–	did not effectively inhibit	0.054 nM and 0.047 nM	little or no inhibition; also recorded: No inhibition; also recorded: does not inhibit	–	–	–
M84K	2	–	still potently inhibited	85	–	effectively diminished inhibition; also recorded: no longer inhibited	slightly more potent as FXa inhibitors; also recorded: slightly more potent than the wild type inhibitor	92	–	Neither ecotin, the M84R or M84K mutants inhibited	–	–	significantly inhibited	did not inhibit	did not inhibit
